Results reported in patent US20040142971A1, “BENZOTHIOPHENE COMPOUNDS HAVING ANTIINFECTIVE ACTIVITY” (GeneSoft, Inc., priority 2001, published 2004).

Legend:
Test in all cases: MIC, NCCLS broth microdilution
B. Cereus ATCC 11778 = type: cell-based, Bacillus cereus; settings: A = B. Cereus ATCC 11778
From the text: (§1) In vitro biological activity data were collected for a variety of microorganisms, including Bacillus cereus (ATCC 11778), Staphylococcus aureus (ATCC 27660 (a methicillin resistant strain (MRSA), ATCC 33591 and ATCC 43300); ATCC 13709, a methicillin sensitive strain (MSSA)); Streptococcus pneumoniae (ATCC 51422, a penicillin resistant strain (PRSP)), Enterococcus faecium (ATCC 51559, a vancomycin resistant strain (VRE)), and Staphylococcus epidermidis (ATCC 700586, a methycillin resistant strain (MRSE)). Additionally, antifungal activity data were collected for Candida albicans (ATCC 38247). Minimal inhibition concentrations (MIC's) were determined using the National Committee for Clinical Laboratory Standards (NCCLS) broth microdilution assay in microtiter plates, as set forth in: (1) the guidelines of the National Committee for Clinical Laboratory Standards (NCCLS) Document M7-A4 (NCCLS, 1997); (2) the guidelines of the National Committee for Clinical Laboratory Standards (NCCLS) Document M11-A4 (NCCLS, 1997); and (3) the guidelines and reference method of the National Committee for Clinical Laboratory Standards (NCCLS) Document M27-T (NCCLS, 1995). For antifungal essays, the method recommended in Murray, PR., 1995 Manual of Clinical Microbiology (ASM Press, Washington, D.C.), was employed.

[1] = test system: S. aureus ATCC 13709 (methicillin sensitive strain, MSSA); type: cell-based, Staphylococcus aureus; settings: C = S. aureus ATCC 13709
From the text: as §1

[2] = test system: S. aureus ATCC 27660 (methicillin resistant strain, MRSA); type: cell-based, Staphylococcus aureus; settings: D = S. aureus ATCC 27660
From the text: as §1

S. aureus ATCC 33591 = type: cell-based, Staphylococcus aureus; settings: E = S. aureus ATCC 33591
From the text: as §1

[3] = test system: E. faecium ATCC 51559 (vancomycin resistant strain, VRE); type: cell-based, Enterococcus faecium; settings: B = E. faecium ATCC 51559
From the text: as §1

[4] = test system: S. epidermidis ATCC 700586 (methycillin resistant strain, MRSE); type: cell-based, Staphylococcus epidermidis; settings: G = S. epidermidis ATCC 700586
From the text: as §1

Row | SMILES | Minimum Inhibitory Concentration (MIC) (B. Cereus ATCC 11778) | Minimum Inhibitory Concentration (MIC) [1] | Minimum Inhibitory Concentration (MIC) [2] | Minimum Inhibitory Concentration (MIC) (S. aureus ATCC 33591) | Minimum Inhibitory Concentration (MIC) [3] | Minimum Inhibitory Concentration (MIC) [4]
1 | Cc1ccc2c(Cl)c(C(=O)Nc3cc(C(=O)Nc4cc(C(=O)Nc5cc(C(=O)NCCN6CCOCC6)n(C)c5)n(C)c4)n(C)c3)sc2c1 [Ib-20c] | +++ (+++ = MIC ≦ 4) | +++ (+++ = MIC ≦ 4) | +++ (+++ = MIC ≦ 4) | +++ (+++ = MIC ≦ 4) |  | 
2 | Cn1cc(NC(=O)c2cc(NC(=O)c3cc(NC(=O)c4cc5cc6c(cc5s4)OCO6)cn3C)cn2C)cc1C(=O)NCCN1CCOCC1 [Ib-20v] | +++ (+++ = MIC ≦ 4) | +++ (+++ = MIC ≦ 4) | +++ (+++ = MIC ≦ 4) | +++ (+++ = MIC ≦ 4) |  | 
3 | Cn1cc(NC(=O)c2cc3cc4c(cc3s2)OCO4)cc1C(=O)NCCN1CCSCC1 [Ib-20w] | +++ (+++ = MIC ≦ 4) | +++ (+++ = MIC ≦ 4) | +++ (+++ = MIC ≦ 4) | +++ (+++ = MIC ≦ 4) |  | 
4 | Cn1cc(NC(=O)c2cc(NC(=O)c3cc(NC(=O)c4sc5cc6c(cc5c4Cl)OCO6)cn3C)cn2C)cc1C(=O)NCCN1CCCCC1 [Ib-20l] | +++ (+++ = MIC ≦ 4) | +++ (+++ = MIC ≦ 4) | +++ (+++ = MIC ≦ 4) | +++ (+++ = MIC ≦ 4) |  | 
5 | Cn1cc(NC(=O)c2sc3cc4c(cc3c2Cl)OCO4)cc1C(=O)NCCN1CCOCC1 [Ib-20f] | +++ (+++ = MIC ≦ 4) | +++ (+++ = MIC ≦ 4) | +++ (+++ = MIC ≦ 4) | +++ (+++ = MIC ≦ 4) |  | 
6 | Cn1cc(NC(=O)c2sc3cc4c(cc3c2Cl)OCO4)cc1C(=O)NCCN1CCCCC1 [Ib-20n] | +++ (+++ = MIC ≦ 4) | +++ (+++ = MIC ≦ 4) | +++ (+++ = MIC ≦ 4) | +++ (+++ = MIC ≦ 4) |  | 
7 | CN(C)CCSCCn1cc(NC(=O)c2cc3ccccc3cn2)cc1C(=O)Nc1cc(C(=O)Nc2ccc3cnccc3c2)n(C)c1 [Ib-73] | +++ (+++ = MIC ≦ 4) | +++ (+++ = MIC ≦ 4) | +++ (+++ = MIC ≦ 4) | +++ (+++ = MIC ≦ 4) |  | 
8 | Cn1cc(NC(=O)c2cc3cc4c(cc3s2)OCO4)cc1C(=O)NCCN1CCOCC1 [Ib-20t] | +++ (+++ = MIC ≦ 4) | +++ (+++ = MIC ≦ 4) | +++ (+++ = MIC ≦ 4) | +++ (+++ = MIC ≦ 4) |  | 
9 | Cn1cc(NC(=O)c2cc(NC(=O)c3cc4cc5c(cc4s3)OCO5)cn2C)cc1C(=O)NCCN1CCOCC1 [Ib-20u] | +++ (+++ = MIC ≦ 4) | +++ (+++ = MIC ≦ 4) | +++ (+++ = MIC ≦ 4) | +++ (+++ = MIC ≦ 4) |  | 
10 | Cn1cc(NC(=O)c2cc(NC(=O)c3cc(NC(=O)c4sc5cc([N+](=O)[O-])ccc5c4Cl)cn3C)cn2C)cc1C(=O)NCCN1CCOCC1 [Ib-20j] | +++ (+++ = MIC ≦ 4) | +++ (+++ = MIC ≦ 4) | +++ (+++ = MIC ≦ 4) | +++ (+++ = MIC ≦ 4) |  | 
11 | Cn1cc(NC(=O)c2cc(NC(=O)c3cc(NC(=O)c4cc5ccccc5cn4)cs3)cn2C)cc1C(=O)NCCN1CCOCC1 [Ib-51] | +++ (+++ = MIC ≦ 4) | +++ (+++ = MIC ≦ 4) | +++ (+++ = MIC ≦ 4) |  |  | 
12 | Cn1cc(NC(=O)c2cc(NC(=O)c3cc(NC(=O)c4sc5cc6c(cc5c4Cl)OCO6)cn3C)cn2C)cc1C(=O)NCCN1CCSCC1 [Ib-20i] | +++ (+++ = MIC ≦ 4) | +++ (+++ = MIC ≦ 4) | +++ (+++ = MIC ≦ 4) |  |  | 
13 | CCN(CC)CCNC(=O)c1cc(NC(=O)c2cc(NC(=O)c3cc(NC(=O)c4sc5cc6c(cc5c4Cl)OCO6)cn3C)cn2C)cn1C [Ib-20h] | +++ (+++ = MIC ≦ 4) | +++ (+++ = MIC ≦ 4) | +++ (+++ = MIC ≦ 4) | +++ (+++ = MIC ≦ 4) |  | 
14 | Cn1cc(NC(=O)c2cc3ccccc3cn2)cc1C(=O)Nc1cc(C(=O)Nc2cc(C(=O)NCCN3CCOCC3)ns2)n(C)c1 [Ib-52] | +++ (+++ = MIC ≦ 4) | +++ (+++ = MIC ≦ 4) | ++ (++ = MIC between 4 and 12) |  |  | 
15 | Cn1cc(NC(=O)c2cc3ccccc3cn2)cc1C(=O)Nc1cc(C(=O)Nc2c[nH]c(C(=O)NCCN3CCSCC3)c2)n(C)c1 [Ib-54] | ++ (++ = MIC between 4 and 12) | + (+ = MIC from 12 to 32, inclusive) | + (+ = MIC from 12 to 32, inclusive) |  |  | 
16 | Cn1cc(NC(=O)c2cc(NC(=O)c3cc(NC(=O)c4cc5ccccc5cn4)cn3C)cn2CCN2CCOCC2)cc1C(=O)NCCN1CCOCC1 [Ib-57] | +++ (+++ = MIC ≦ 4) | +++ (+++ = MIC ≦ 4) | +++ (+++ = MIC ≦ 4) | +++ (+++ = MIC ≦ 4) |  | 
17 | Cn1cc(NC(=O)c2cc(NC(=O)c3sc4ccccc4c3Cl)cn2C)cc1C(=O)NCCN1CCC(O)CC1 [Ib-20a] | +++ (+++ = MIC ≦ 4) | +++ (+++ = MIC ≦ 4) | +++ (+++ = MIC ≦ 4) |  |  | 
18 | Cn1cc(NC(=O)c2cc3cc4c(cc3s2)OCO4)cc1C(=O)NCCN1CCCC1 [Ib-20x] | +++ (+++ = MIC ≦ 4) | +++ (+++ = MIC ≦ 4) | +++ (+++ = MIC ≦ 4) | +++ (+++ = MIC ≦ 4) |  | 
19 | Cn1cc(NC(=O)c2cc3ccccc3cn2)cc1C(=O)Nc1cc(C(=O)Nc2ccc3sc(C(=O)NCCN4CCOCC4)cc3c2)n(C)c1 [Id-1] | >32 µg/mL |  |  |  |  | 
20 | Cn1cc(NC(=O)c2sc3cc4c(cc3c2Cl)OCO4)cc1C(=O)NCCN1CCC(F)(F)CC1 [Ib-20q] | >32 µg/mL | +++ (+++ = MIC ≦ 4) | +++ (+++ = MIC ≦ 4) | +++ (+++ = MIC ≦ 4) |  | 
21 | CCN(CC)CCNC(=O)c1cc(NC(=O)c2cc(NC(=O)c3cc(NC(=O)c4cc5ccccc5cn4)cn3C)cn2C)sn1 [Ib-53] | ++ (++ = MIC between 4 and 12) | ++ (++ = MIC between 4 and 12) | + (+ = MIC from 12 to 32, inclusive) |  |  | 
22 | Cn1cc(NC(=O)c2cc(NC(=O)c3cc(NC(=O)c4cc5ccccc5cn4)c[nH]3)cn2C)cc1C(=O)NCCN1CCC(F)(F)CC1 [Ib-78] | +++ (+++ = MIC ≦ 4) | +++ (+++ = MIC ≦ 4) | +++ (+++ = MIC ≦ 4) | +++ (+++ = MIC ≦ 4) |  | 
23 | Cn1cc(NC(=O)c2cc(NC(=O)c3cc(NC(=O)c4cc5ccccc5cn4)c[nH]3)cn2C)cc1C(=O)NCCc1ccncc1 [Ib-76] | +++ (+++ = MIC ≦ 4) | +++ (+++ = MIC ≦ 4) | +++ (+++ = MIC ≦ 4) | +++ (+++ = MIC ≦ 4) | +++ (+++ = MIC ≦ 4) | +++ (+++ = MIC ≦ 4)
24 | Cn1cc(NC(=O)c2cc3ccccc3cn2)cc1C(=O)Nc1cc(C(=O)Nc2cn(C)c(C(=O)NCCN3CCOCC3)n2)n(C)c1 [Ib-58] | +++ (+++ = MIC ≦ 4) | +++ (+++ = MIC ≦ 4) | +++ (+++ = MIC ≦ 4) | +++ (+++ = MIC ≦ 4) |  | 
25 | Cn1cc(NC(=O)c2cc(NC(=O)c3cc(NC(=O)c4sc5ccccc5c4Cl)cn3C)cn2C)cc1C(=O)NCC[N+]1(C)CCOCC1 [Ib-20b] | +++ (+++ = MIC ≦ 4) | +++ (+++ = MIC ≦ 4) | +++ (+++ = MIC ≦ 4) | +++ (+++ = MIC ≦ 4) |  | 
26 | CN(C)c1ccc2c(Cl)c(C(=O)Nc3cc(C(=O)Nc4cc(C(=O)Nc5cc(C(=O)NCCN6CCOCC6)n(C)c5)n(C)c4)n(C)c3)sc2c1 [Ib-20k] | >32 µg/mL | +++ (+++ = MIC ≦ 4) | +++ (+++ = MIC ≦ 4) |  |  | 
